What all share (type): cell-based
The subject of one experiment is Klebs. 57 USA. Nature of the experiment: MIC values, Klebs. 57 USA. As to conditions: 37° C., about 20 hours. The method, then:
(§1) The minimum inhibitory concentrations (MIC) were determined by the series dilution method on Iso-Sensitest agar (Oxoid). A series of agar plates which contained concentrations of the active compound which decreased by two-fold dilution in each case were prepared for each test substance. The agar plates were inoculated with a Multipoint inoculator (Denley). Overnight cultures of the pathogens which had been diluted beforehand such that each inoculation point contained about 10^4 colony-forming particles were used for the inoculation. The inoculated agar plates were incubated at 37° C. and the germ growth was read off after about 20 hours. The MIC value (μg/ml) indicates the lowest concentration of active compound at which no growth was detectable with the naked eye.
(§2) The MIC values were determined with the aid of the microdilution method in BH medium. Each test substance was dissolved in the nutrient medium. A concentration series of the test substances was prepared in the microtiter plate by serial dilution. Overnight cultures of the pathogens which were diluted 1:250 beforehand in the nutrient medium were used for the inoculation. In each case 100 μl of inoculation solution were added to 100 μl of the diluted nutrient solutions containing the active compound.

The next experiment has as its system E. coli Neumann. The experiment can be described thus: MIC values, E. coli Neumann. Conditions: Escherichia coli, 37° C., about 20 hours. The method, then: as §1, §2
A further experiment concerns Staph. 9TV. The experiment can be described thus: MIC values, Staph. 9TV. As to conditions: 37° C., about 20 hours. How it is done:
as §1, §2

The test system of a further experiment is Staph. 133. The experiment can be described thus: MIC values, Staph. 133. Conditions: 37° C., about 20 hours. The method, then:
as §1, §2

Another experiment concerns Staph 25701. Nature of the experiment: MIC values, Staph 25701. As to conditions: 37° C., about 20 hours. How it is done:
as §1, §2

The subject of a further experiment is Staph. 48N. Nature of the experiment: MIC values, Staph. 48N. As to conditions: 37° C., about 20 hours. How it is done: as §1, §2
In a further experiment the test system is Psdm. Bonn. Nature of the experiment: MIC values, Psdm. Bonn. As to conditions: 37° C., about 20 hours. How it is done:
as §1, §2

≈ marks a conversion by molar mass, not a printed value. Where only a bound is given, the exact number is not on record here.

The term MIC denotes the least concentration at which growth counts as inhibited. On to `CC(=O)NC[C@H]1CN(c2ccc3ncccc3c2)C(=O)O1` [Example 29], for which the MIC against Klebs. 57 USA is over 64 µg/mL; in the experiment on E. coli Neumann it was over 64 µg/mL; in the experiment on Staph. 9TV, 8 µg/mL (≈ 28 µM); against Staph. 133, 8 µg/mL (≈ 28 µM); in the experiment with Staph 25701 it was 8 µg/mL (≈ 28 µM); in the experiment with Staph. 48N, 8 µg/mL (≈ 28 µM).
Regarding `CC(=O)NC[C@H]1CN(c2ccc(-c3ccc(C)cc3)cn2)C(=O)O1` [Example 36, (5S)-3-[5-(4-Methylphenyl)pyridin-2-yl]-5-acetyl-aminomethyl-oxazolidin-2-one], the MIC against Klebs. 57 USA is over 32 µg/mL; against E. coli Neumann, over 32 µg/mL; with Staph. 9TV it was 1 µg/mL (≈ 3.07 µM); in the experiment with Staph. 133, 4 µg/mL (≈ 12.3 µM); against Psdm. Bonn it was over 32 µg/mL; in the experiment on Staph 25701, 4 µg/mL (≈ 12.3 µM). Moreover, it took 4 µg/mL (≈ 12.3 µM) to inhibit growth in the experiment with Staph. 48N (MIC).
On to `CC(=O)NC[C@H]1CN(c2ccc(-c3ccccc3)cn2)C(=O)O1` [Example 37], for which the MIC is over 32 µg/mL with Klebs. 57 USA; over 32 µg/mL against E. coli Neumann; 0.5 µg/mL (≈ 1.61 µM) against Staph. 9TV; 1 µg/mL (≈ 3.21 µM) against Staph. 133; over 32 µg/mL against Psdm. Bonn; 1 µg/mL (≈ 3.21 µM) in the experiment with Staph 25701. The minimum inhibitory concentration (MIC) in the experiment on Staph. 48N turned out to be 1 µg/mL (≈ 3.21 µM).
On to `CC(=O)NC[C@H]1CN(c2ccc(-c3ccccc3C=O)cn2)C(=O)O1` [Example 38], for which the MIC against Klebs. 57 USA was over 32 µg/mL; with E. coli Neumann it was over 32 µg/mL; with Staph. 9TV, 2 µg/mL (≈ 5.89 µM); against Staph. 133, 4 µg/mL (≈ 11.8 µM); with Psdm. Bonn, over 32 µg/mL; with Staph 25701, 8 µg/mL (≈ 23.6 µM). The compound further displayed an MIC against Staph. 48N of 4 µg/mL (≈ 11.8 µM).
Regarding `CC(=O)NC[C@H]1CN(c2ccc(-c3cccc(C=O)c3)cn2)C(=O)O1` [Example 39], the MIC against Klebs. 57 USA is over 32 µg/mL; against E. coli Neumann, over 32 µg/mL; in the experiment with Staph. 9TV, 0.125 µg/mL (≈ 0.368 µM); in the experiment with Staph. 133, 0.25 µg/mL (≈ 0.737 µM); in the experiment with Psdm. Bonn, over 32 µg/mL; against Staph 25701, 0.5 µg/mL (≈ 1.47 µM). In the experiment on Staph. 48N, this compound registered an MIC of 0.5 µg/mL (≈ 1.47 µM).
For the compound `CC(=O)NC[C@H]1CN(c2ccc(-c3ccc(C=O)cc3)cn2)C(=O)O1` [Example 40], the MIC in the experiment on Klebs. 57 USA was over 32 µg/mL; in the experiment on E. coli Neumann it was over 32 µg/mL; in the experiment with Staph. 9TV, 0.5 µg/mL (≈ 1.47 µM); in the experiment with Staph. 133, 1 µg/mL (≈ 2.95 µM); against Psdm. Bonn, over 32 µg/mL; against Staph 25701 it was 1 µg/mL (≈ 2.95 µM). For the same compound, in the experiment with Staph. 48N, 1 µg/mL (≈ 2.95 µM) was the least that counted as inhibitory (MIC).
For the compound `CC(=O)NC[C@H]1CN(c2ccc(-c3ccc(C(C)=O)cc3)cn2)C(=O)O1` [Example 41], the MIC with Klebs. 57 USA is over 32 µg/mL; with E. coli Neumann, over 32 µg/mL; in the experiment with Staph. 9TV, 1 µg/mL (≈ 2.83 µM); with Staph. 133, 2 µg/mL (≈ 5.66 µM); in the experiment on Psdm. Bonn, over 32 µg/mL; with Staph 25701, 4 µg/mL (≈ 11.3 µM). Moreover, the minimal inhibitory concentration (MIC) against Staph. 48N is 4 µg/mL (≈ 11.3 µM).
On to `CC(=O)NC[C@H]1CN(c2ccc(-c3cccc(C(C)=O)c3)cn2)C(=O)O1` [Example 42], for which the MIC in the experiment with Klebs. 57 USA was over 64 µg/mL; against E. coli Neumann, over 64 µg/mL; against Staph. 9TV, 4 µg/mL (≈ 11.3 µM); with Staph. 133, 4 µg/mL (≈ 11.3 µM); against Staph 25701 it was 4 µg/mL (≈ 11.3 µM); in the experiment on Staph. 48N, 4 µg/mL (≈ 11.3 µM).
For the compound `CC(=O)NC[C@H]1CN(c2ccc(-c3ccc(C(C)=O)s3)cn2)C(=O)O1` [Example 43], the MIC was over 32 µg/mL in the experiment on Klebs. 57 USA; over 32 µg/mL with E. coli Neumann; 0.25 µg/mL (≈ 0.696 µM) with Staph. 9TV; 0.25 µg/mL (≈ 0.696 µM) in the experiment on Staph. 133; over 32 µg/mL with Psdm. Bonn; 0.5 µg/mL (≈ 1.39 µM) in the experiment on Staph 25701. In the experiment with Staph. 48N, this compound displayed an MIC of 0.5 µg/mL (≈ 1.39 µM).
As to `CC(=O)NC[C@H]1CN(c2ccc(-c3csc(C=O)c3)cn2)C(=O)O1` [Example 44], the MIC is over 32 µg/mL with Klebs. 57 USA; over 32 µg/mL against E. coli Neumann; 2 µg/mL (≈ 5.79 µM) with Staph. 9TV; 2 µg/mL (≈ 5.79 µM) against Staph. 133; over 32 µg/mL with Psdm. Bonn; 2 µg/mL (≈ 5.79 µM) in the experiment on Staph 25701. In addition, the lowest concentration to inhibit growth against Staph. 48N (MIC) was 4 µg/mL (≈ 11.6 µM).
For the compound `CC(=O)NC[C@H]1CN(c2ccc(-c3ccc(F)c(Cl)c3)cn2)C(=O)O1` [Example 46], the MIC in the experiment with Klebs. 57 USA was over 64 µg/mL; in the experiment with E. coli Neumann, over 64 µg/mL; against Staph. 9TV it was 2 µg/mL (≈ 5.5 µM); in the experiment on Staph. 133, 8 µg/mL (≈ 22 µM); in the experiment on Psdm. Bonn, over 64 µg/mL; with Staph 25701 it was 4 µg/mL (≈ 11 µM). This compound showed an MIC in the experiment on Staph. 48N of 2 µg/mL (≈ 5.5 µM).
For the compound `CC(=O)NC[C@H]1CN(c2ccc(-c3ccc(F)cc3)cn2)C(=O)O1` [Example 47], the minimal inhibitory concentration (MIC) in the experiment with Klebs. 57 USA is over 64 µg/mL; against E. coli Neumann it was over 64 µg/mL; in the experiment with Staph. 9TV, 1 µg/mL (≈ 3.04 µM); in the experiment with Staph. 133 it was 4 µg/mL (≈ 12.1 µM); with Psdm. Bonn it was over 64 µg/mL; with Staph 25701, 1 µg/mL (≈ 3.04 µM). This compound came in with an MIC against Staph. 48N of 2 µg/mL (≈ 6.07 µM).
Consider `CC(=O)NC[C@H]1CN(c2ccc(-c3cccc([N+](=O)[O-])c3)cn2)C(=O)O1` [Example 48], for which the MIC in the experiment on Klebs. 57 USA was over 64 µg/mL; with E. coli Neumann, over 64 µg/mL; against Staph. 9TV, 1 µg/mL (≈ 2.81 µM); in the experiment with Staph. 133, 4 µg/mL (≈ 11.2 µM); in the experiment with Psdm. Bonn, over 64 µg/mL; against Staph 25701, 2 µg/mL (≈ 5.61 µM). 2 µg/mL (≈ 5.61 µM) was the least that counted as inhibitory with Staph. 48N (MIC).
In the case of `CC(=O)NC[C@H]1CN(c2ccc3cccc(-c4ccc(C)cc4)c3n2)C(=O)O1` [Example 59], the MIC was over 32 µg/mL against Klebs. 57 USA; over 32 µg/mL against E. coli Neumann; 1 µg/mL (≈ 2.66 µM) against Staph. 9TV; 1 µg/mL (≈ 2.66 µM) with Staph. 133; over 32 µg/mL in the experiment with Psdm. Bonn; 1 µg/mL (≈ 2.66 µM) against Staph 25701. This compound also came in with an MIC against Staph. 48N of 2 µg/mL (≈ 5.33 µM).

The values above are taken from patent US5627181A, “6-membered nitrogen-containing heteroaryl-oxazolidinones” (Bayer Aktiengesellschaft, priority 1994, dated 1997).
